Laboratory results reported in PubChem BioAssay (NCI).
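Briefly, cells in 96-well plates were exposed to five compound concentrations for 48 h, and endpoints were estimated by linear interpolation. TGI is the concentration that stops growth completely.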

Columns and labels:
Assay in all cases: DTP human tumour cell line panel, 48 h
[1] = test system: BT-549 breast
[2] = test system: MCF7 breast
[3] = test system: HT29 colon
[4] = test system: SF-539 CNS
[5] = test system: DU-145 prostate
[6] = test system: OVCAR-5 ovarian
[7] = test system: SK-MEL-28 melanoma
[8] = test system: SK-OV-3 ovarian
[9] = test system: CCRF-CEM leukemia
[10] = test system: OVCAR-4 ovarian

`O=c1[nH]c2ccccc2c(O)c1/C=N/C(=S)NCc1ccccc1` showed a TGI [1] of over 100 µM, a TGI [2] of over 100 µM and a TGI [3] of over 100 µM. The TGI [4] was over 100 µM, the TGI [5] was over 100 µM and the TGI [6] was over 100 µM. It also gave a TGI [7] of over 100 µM and a TGI [8] of over 100 µM.

In the case of `O=c1cc(NNc2cccc(F)c2)[nH]c(=O)[nH]1`, the TGI [9] is reported as 55.9 µM, the TGI [1] is reported as over 100 µM and the TGI [3] is reported as 29.9 µM. The TGI [4] was over 100 µM, the TGI [5] was over 100 µM and the TGI [6] was over 100 µM. The TGI [7] was over 100 µM, the TGI [8] was over 100 µM and the TGI [10] was over 100 µM.

Molecule `CCCCCCNC(=O)CCC(NC(=O)c1ccc(N(C)Cc2cnc3nc(N)nc(N)c3n2)cc1)C(=O)NCCCCCC` (stereo not given) has a TGI [9] of over 100 µM, a TGI [1] of over 100 µM and a TGI [2] of 34.1 µM. It also gave a TGI [3] of over 100 µM, a TGI [5] of over 100 µM and a TGI [6] of over 100 µM. For the same molecule, the TGI [7] was over 100 µM, the TGI [8] was 37.2 µM and the TGI [10] was over 100 µM.

`CCC/C=C1\CCC(CN(C)C)C1=O` (stereo not given) gave a TGI [9] of 1.97 µM, a TGI [3] of 17.9 µM and a TGI [4] of 25.3 µM. It also gave a TGI [6] of 35.6 µM, a TGI [7] of 14.9 µM and a TGI [8] of over 56.7 µM. It also gave a TGI [10] of 38.6 µM.

With `O=C(NC1CCCCC1)c1cc2ccccc2cc1O` the TGI [9] was over 100 µM, the TGI [2] was over 100 µM and the TGI [3] was 37 µM. For the same molecule, the TGI [4] was 57.2 µM, the TGI [5] was over 100 µM and the TGI [7] was over 100 µM. It also gave a TGI [8] of over 100 µM and a TGI [10] of over 100 µM.

For `NNc1nncc2[nH]cnc12`, the TGI [9] was over 100 µM, the TGI [1] was over 100 µM and the TGI [2] was over 100 µM. It also gave a TGI [3] of over 100 µM, a TGI [4] of over 100 µM and a TGI [5] of over 100 µM. The TGI [6] was over 100 µM and the TGI [7] was over 100 µM.

With `COC(=O)[C@H]1NC(=O)CCSSC1(C)C` the TGI [9] was over 100 µM, the TGI [1] was over 100 µM and the TGI [2] was over 100 µM. For the same molecule, the TGI [3] was over 100 µM, the TGI [4] was over 100 µM and the TGI [5] was over 100 µM. The TGI [6] was over 100 µM, the TGI [7] was over 100 µM and the TGI [10] was over 100 µM.

Work on `Cc1ccc(-n2cc(-c3ccc(Cl)cc3)c3c(N/N=C4\SCC(=O)N4C)ncnc32)cc1` yielded a TGI [9] of over 100 µM, a TGI [1] of 82 µM and a TGI [3] of over 100 µM. For the same molecule, the TGI [4] was 33.9 µM, the TGI [5] was over 100 µM and the TGI [6] was over 100 µM. The TGI [7] was 6.23 µM, the TGI [8] was 13.8 µM and the TGI [10] was 8.03 µM.

`COc1ccc2c(c1)C/C(=C\c1cccc3ccccc13)C2=O` showed a TGI [9] of over 100 µM, a TGI [1] of over 100 µM and a TGI [2] of over 100 µM. For the same molecule, the TGI [3] was over 100 µM, the TGI [4] was 44.8 µM and the TGI [6] was over 100 µM. It also gave a TGI [7] of over 100 µM, a TGI [8] of over 100 µM and a TGI [10] of over 100 µM.

Molecule `Cc1ccc2c(=O)c(C(=O)Nn3c(C)csc3=S)c[nH]c2n1` has a TGI [9] of over 100 µM, a TGI [1] of over 100 µM and a TGI [2] of over 100 µM. The TGI [3] was over 100 µM, the TGI [5] was over 100 µM and the TGI [6] was over 100 µM. The TGI [7] was over 100 µM and the TGI [10] was over 100 µM.

With `O=[N+]([O-])c1ccc(N/N=C/CC(O)(C(F)(F)F)C(F)(F)F)c([N+](=O)[O-])c1` the TGI [9] was over 10 µM, the TGI [2] was over 10 µM and the TGI [3] was over 10 µM. For the same molecule, the TGI [4] was over 10 µM, the TGI [5] was over 10 µM and the TGI [7] was over 10 µM. For the same molecule, the TGI [8] was over 10 µM and the TGI [10] was over 10 µM.

With `CC1(C)C(=O)c2ccccc2OC1N1CCN(C2Oc3ccccc3C(=O)C2(C)C)CC1` (stereo not given) the TGI [9] was over 100 µM, the TGI [1] was over 100 µM and the TGI [2] was over 100 µM. It also gave a TGI [3] of over 100 µM, a TGI [5] of over 100 µM and a TGI [6] of over 100 µM. For the same molecule, the TGI [7] was over 100 µM, the TGI [8] was over 100 µM and the TGI [10] was over 100 µM.

Work on `CCOC(=O)c1cc(I)c(-c2cc(C)no2)n1C` yielded a TGI [9] of over 100 µM, a TGI [1] of over 100 µM and a TGI [3] of over 100 µM. It also gave a TGI [4] of over 100 µM, a TGI [5] of over 100 µM and a TGI [6] of over 100 µM. For the same molecule, the TGI [7] was over 100 µM, the TGI [8] was over 100 µM and the TGI [10] was 75 µM.

`C=CCN1C(=O)/C(=C/c2ccco2)N=C1SC1OC(COC(C)=O)C(OC(C)=O)C(OC(C)=O)C1OC(C)=O` (stereo not given) was tested, and the TGI [1] was over 100 µM, the TGI [2] was over 100 µM and the TGI [4] was over 100 µM. For the same molecule, the TGI [5] was over 100 µM, the TGI [6] was over 100 µM and the TGI [7] was over 100 µM. The TGI [8] was over 100 µM and the TGI [10] was over 100 µM.

`C[n+]1c(-c2ccc(/C=N/Nc3ccnc(N/N=C/c4ccc(-c5cn6ccsc6[n+]5C)cc4)n3)cc2)cn2ccsc21` showed a TGI [9] of 44.2 µM, a TGI [1] of 78.5 µM and a TGI [2] of over 100 µM. For the same molecule, the TGI [3] was over 100 µM, the TGI [4] was over 100 µM and the TGI [5] was 82 µM. The TGI [6] was over 100 µM, the TGI [8] was over 100 µM and the TGI [10] was over 100 µM.

Work on `Oc1ccc(Cl)cc1-c1cc(-c2ccccc2)nc(NCN2CCCCC2)n1` yielded a TGI [1] of over 100 µM, a TGI [2] of over 100 µM and a TGI [3] of over 100 µM. It also gave a TGI [4] of over 100 µM, a TGI [5] of over 100 µM and a TGI [6] of over 100 µM. For the same molecule, the TGI [7] was over 100 µM, the TGI [8] was over 100 µM and the TGI [10] was over 100 µM.

For `O=S(OC12CC3CC(CC(C3)C1)C2)c1cc(Cl)cc(Cl)c1OCc1ccccc1` (stereo not given), the TGI [9] was over 100 µM, the TGI [3] was over 100 µM and the TGI [4] was over 100 µM. For the same molecule, the TGI [6] was over 100 µM, the TGI [7] was over 100 µM and the TGI [8] was over 100 µM. It also gave a TGI [10] of over 100 µM.

`O=c1cc(-c2c[nH]c3ccccc23)[nH]c2cc3c(cc12)OCO3` gave a TGI [9] of over 100 µM, a TGI [3] of over 100 µM and a TGI [4] of over 100 µM. It also gave a TGI [7] of over 100 µM and a TGI [10] of over 100 µM.

For `CC1(C)C(CCO)CC1n1cc(I)c(=O)[nH]c1=O` (stereo not given), the TGI [9] was over 100 µM, the TGI [2] was over 100 µM and the TGI [4] was over 100 µM. It also gave a TGI [5] of over 100 µM, a TGI [6] of over 100 µM and a TGI [7] of over 100 µM. For the same molecule, the TGI [8] was over 100 µM and the TGI [10] was over 100 µM.

`CCCC(C)n1c(C)nc2c1C(=O)c1ccccc1C2=O` (stereo not given) gave a TGI [9] of over 100 µM, a TGI [3] of over 100 µM and a TGI [4] of 98 µM. It also gave a TGI [7] of over 100 µM, a TGI [8] of over 100 µM and a TGI [10] of over 100 µM.

`O=[N+]([O-])c1ccccc1S(=O)(=O)c1ccccc1` was tested, and the TGI [9] was over 100 µM, the TGI [3] was over 100 µM and the TGI [4] was over 100 µM. For the same molecule, the TGI [6] was over 100 µM, the TGI [7] was over 100 µM and the TGI [8] was over 100 µM. The TGI [10] was over 100 µM.

`O=C(O)C[C@@H]1[C@@H](O)[C@@H](O)CN2C(=O)c3ccccc3[C@H]12` gave a TGI [1] of over 100 µM, a TGI [2] of over 100 µM and a TGI [3] of over 100 µM. For the same molecule, the TGI [4] was over 100 µM, the TGI [5] was over 100 µM and the TGI [6] was over 100 µM. It also gave a TGI [7] of over 100 µM, a TGI [8] of over 100 µM and a TGI [10] of over 100 µM.

Molecule `Brc1ccc2c3c1[C@H]1O[C@H]1c1cccc(c1-3)[C@@H]1O[C@H]21` has a TGI [1] of 31.5 µM, a TGI [2] of 73.1 µM and a TGI [3] of 34.7 µM. The TGI [5] was 25.6 µM, the TGI [6] was 37.2 µM and the TGI [7] was 36.5 µM. It also gave a TGI [8] of 35.1 µM and a TGI [10] of 28.8 µM.

`COC1CC(OC2C(C)OC(OC3C(C)OC(OC4C(O)CC(O[C@H]5CC[C@@]6(C)C(=CC[C@]7(O)[C@@H]6C[C@@H](OC(C)=O)[C@@]6(C)[C@]7(O)CC[C@@]6(O)C(C)=O)C5)OC4C)CC3OC)CC2OC)OC(C)C1O` (stereo not given in full) showed a TGI [9] of over 12.5 µM, a TGI [1] of over 12.5 µM and a TGI [2] of over 12.5 µM. The TGI [3] was over 12.5 µM, the TGI [4] was over 12.5 µM and the TGI [5] was over 12.5 µM. The TGI [6] was over 12.5 µM, the TGI [8] was over 12.5 µM and the TGI [10] was over 12.5 µM.
